From patent publication US20260199323A1, “LIGAND COMPOUNDS FOR E3 UBIQUITIN LIGASE, PROTEIN DEGRADERS DEVELOPED ON BASIS OF LIGAND COMPOUNDS, AND USES THEREOF” (GLUETACS THERAPEUTICS (SHANGHAI) CO., LTD., priority 2021, published 2026)

Legend:
Type in all cases: cell-based, Human
Mino = assay: CCK-8 tumor cell proliferation, Mino; settings: Table 13, designed based on BCR-ABL inhibitors; 72 h
Procedure: (§1) The tumor cells used herein were cultured in a cell culture medium listed in table 4 at 37° C. in an incubator with 5% CO2. Prior to experimentation, all cells used were correctly identified by STR profiling, and tested negative for mycoplasma through routine screenings.
(§2) IC50 values of the compounds of the present disclosure (including the compounds in Tables 1 and 3, and compounds of examples) were measured using the Meilun Cell Counting Kit-8 kit from Dalian Meilun Biotech Co., Ltd. Assay details are as follows: tumor cells were seeded in a 96-well plate at a density listed in Table 5. After 24 h, 100 μL of the inoculated cells were treated with 0.5 μL of the compounds of the present disclosure (including the compounds in Tables 1 and 3, and compounds of examples) at 10 different successively decreasing concentrations (starting at the highest concentration of 10 μM; 5-fold serial dilutions). After the cells were treated with the compounds of the present disclosure for a period of time, the cell viability detection reagent was added to the culture medium for cell viability assessment according to the instructions provided with the CCK-8 kit. […] The growth inhibition of the compounds of the present disclosure on cells was plotted by Prism Graphpad software, and the IC50 values of the compounds of the present disclosure were calculated therefrom.

MDA-MB-231 = assay: CCK-8 tumor cell proliferation, MDA-MB-231; settings: Homo sapiens; Table 15, ALK inhibitor based; MDA-MB-231; read-out: IC50 inhibiting proliferation of tumor cells, MDA-MB-231
Procedure: as §1, §2

PC-9 = assay: CCK-8 tumor cell proliferation, PC-9; settings: for IC50: Homo sapiens, Table 15, ALK inhibitor based, PC-9, read-out: IC50 inhibiting proliferation of tumor cells, PC-9; for IC50 for inhibiting the proliferation of tumor cells, PC-9: Table 11, designed based on EGFR inhibitors, 96 h
Procedure: The tumor cells used herein were cultured in a cell culture medium listed in table 4 at 37° C. in an incubator with 5% CO2.
as §2, with “After” for “IC50 values of the compounds of the present disclosure (including the compounds in Tables 1 and 3, and compounds of examples) were measured using the Meilun Cell Counting Kit-8 kit from Dalian Meilun Biotech Co., Ltd. Assay details are as follows: tumor cells were seeded in a 96-well plate at a density listed in Table 5. After”

SR = assay: CCK-8 tumor cell proliferation, SR; settings: for IC50: Homo sapiens, Table 15, ALK inhibitor based, SR, read-out: IC50 inhibiting proliferation of tumor cells, SR
Procedure: as §1, §2

CCRF-CEM = assay: CCK-8 tumor cell proliferation, CCRF-CEM; parameters: IC50 for inhibiting the proliferation of tumor cells, CCRF-CEM: scale not given here; settings: 96 h
Procedure: as §1, §2

SW620 = assay: CCK-8 tumor cell proliferation, SW620; settings: Table 14, designed based on CDK4/6 inhibitors; 96 h
Procedure: as §1, §2

Cc1nc(Nc2ncc(C(=O)Nc3c(C)cccc3Cl)s2)cc(N2CCC(N3CCN(Cc4ccc5c(c4)CN(C4CCC(=O)NC4=O)C5=O)CC3)CC2)n1 (centres unmarked) [GT-03476, N-(2-chloro-6-methylphenyl)-2-((6-(4-(4-((2-(2,6-dioxopiperidin-3-yl)-1-oxoisoindolin-5-yl)methyl)piperazin-1-yl)piperidin-1-yl)-2-methylpyrimidin-4-yl)amino)thiazole-5-carboxamide]
IC50 for inhibiting the proliferation of tumor cells, Mino (Mino): A+

Cc1cc(Nc2ncc(Cl)c(Nc3ccccc3S(=O)(=O)C(C)C)n2)c(OC(C)C)cc1N1CCN(Cc2ccc3c(c2)CN(C2CCC(=O)NC2=O)C3=O)CC1 (centres unmarked) [GT-03529, 3-(5-((4-(4-((5-chloro-4-((2-(isopropylsulfonyl)phenyl)amino)pyrimidin-2-yl)amino)-5-isopropoxy-2-methylphenyl)piperazin-1-yl)methyl)-1-oxoisoindolin-2-yl)piperidine-2,6-dione]
IC50 (MDA-MB-231): 100 to 500 nM | IC50 (PC-9): 100 to 500 nM | IC50 (SR): < 50 nM

Cc1cc(Nc2ncc(Cl)c(Nc3ccccc3S(=O)(=O)C(C)C)n2)c(OC(C)C)cc1N1CCC(N2CCN(Cc3ccc4c(c3)CN(C3CCC(=O)NC3=O)C4=O)CC2)CC1 (centres unmarked) [GT-03531, 3-(5-((4-(1-(4-((5-chloro-4-((2-(isopropylsulfonyl)phenyl)amino)pyrimidin-2-yl)amino)-5-isopropoxy-2-methylphenyl)piperidin-4-yl)piperazin-1-yl)methyl)-1-oxoisoindolin-2-yl)piperidine-2,6-dione]
IC50 (MDA-MB-231): 100 to 500 nM | IC50 (PC-9): 1000 to 5000 nM | IC50 (SR): < 50 nM

CN(Cc1ccc2c(c1)CN(C1CCC(=O)NC1=O)C2=O)C1CCN(c2ccc(Nc3ncc4nc(Nc5ccccc5)n(C5CCCC5)c4n3)cc2)CC1 (centres unmarked) [GT-03685, 3-(5-(((1-(4-((9-cyclopentyl-8-(phenylamino)-9H-purin-2-yl)amino)phenyl)piperidin-4-yl)(methyl)amino)methyl)-1-oxoisoindolin-2-yl)piperidine-2,6-dione]
IC50 for inhibiting the proliferation of tumor cells, PC-9 (PC-9): A+ | IC50 for inhibiting the proliferation of tumor cells, CCRF-CEM (CCRF-CEM; Table 11, designed based on EGFR inhibitors): A+

Cc1nc2c(F)cc(-c3nc(Nc4ccc(N5CCC(N6CCN(Cc7ccc8c(c7)CN(C7CCC(=O)NC7=O)C8=O)CC6)CC5)cn4)ncc3F)cc2n1C(C)C (centres unmarked) [GT-03719, 3-(5-((4-(1-(6-((5-fluoro-4-(4-fluoro-1-isopropyl-2-methyl-1H-benzo[d]imidazol-6-yl)pyrimidin-2-yl)amino)pyridin-3-yl)piperidin-4-yl)piperazin-1-yl)methyl)-1-oxoisoindolin-2-yl)piperidine-2,6-dione]
IC50 for inhibiting the proliferation of tumor cells, SW620 (SW620): A+ | IC50 for inhibiting the proliferation of tumor cells, SR (SR; Table 14, designed based on CDK4/6 inhibitors, 72 h): A+ | IC50 for inhibiting the proliferation of tumor cells, CCRF-CEM (CCRF-CEM; Table 14, designed based on CDK4/6 inhibitors): A+

O=C1CCC(N2Cc3cc(CN4CCN(c5ccc(Nc6ncc7nc(Nc8ccccc8)n(C8CCCC8)c7n6)cc5)CC4)c(F)cc3C2=O)C(=O)N1 (centres unmarked) [GT-03736, 3-(5-((4-(4-((9-cyclopentyl-8-(phenylamino)-9H-purin-2-yl)amino)phenyl)piperazin-1-yl)methyl)-6-fluoro-1-oxoisoindolin-2-yl)piperidine-2,6-dione]
IC50 for inhibiting the proliferation of tumor cells, PC-9 (PC-9): A+

O=C1CCC(N2Cc3cc(CN4CCN(C5CCN(c6ccc(Nc7ncc8nc(Nc9ccccc9)n(C9CCCC9)c8n7)cc6)CC5)CC4)ccc3C2=O)C(=O)N1 (centres unmarked) [GT-03808, 3-(5-((4-(1-(4-((9-cyclopentyl-8-(phenylamino)-9H-purin-2-yl)amino)phenyl)piperidin-4-yl)piperazin-1-yl)methyl)-1-oxoisoindolin-2-yl)piperidine-2,6-dione]
IC50 for inhibiting the proliferation of tumor cells, PC-9 (PC-9): A+
